# How the values were obtained:
# MDA-MB-231 [1] = assay: Antiproliferative activity against human MDA-MB-231 cells after 48 hrs by alamar blue assay; format: functional; settings: MDA-MB-231, 48 h
# [2] = molecular target: T1, Baculoviral IAP repeat-containing protein 2 (Homo sapiens, UniProt Q13490); assay: Antagonist activity at cIAP1 in human MDA-MB-231 cells assessed as cIAP1 degradation after 1 hr by ELISA; format: functional, cell-based
# [3] = molecular target: T2, E3 ubiquitin-protein ligase XIAP (Homo sapiens, UniProt P98170); assay: Antagonist activity at GST-tagged BIR3 domain of XIAP using AbuRPFK-5FAM after 20 mins by fluorescence polarization assay; format: functional
# [4] = molecular target: T1, Baculoviral IAP repeat-containing protein 2; assay: Antagonist activity at GST-tagged BIR3 domain of cIAP1 using AbuRPFK-5FAM after 20 mins by fluorescence polarization assay; format: functional
# [5] = Lipophilicity, log D of the compound; format: physicochemical; settings: octanol/water
# MDA-MB-231 [6] = assay: Antiproliferative activity against human MDA-MB-231 cells assessed as cell growth at 0.00172 uM after 48 hrs by alamar blue assay relative to control; format: functional; settings: MDA-MB-231, 48 h, read-out: Activity
# MDA-MB-231 [7] = assay: Antiproliferative activity against human MDA-MB-231 cells assessed as cell growth at 0.13951 uM after 48 hrs by alamar blue assay relative to control; format: functional; settings: MDA-MB-231, 48 h, read-out: Activity
# MDA-MB-231 [8] = assay: Antiproliferative activity against human MDA-MB-231 cells assessed as cell growth at 3.76667 uM after 48 hrs by alamar blue assay relative to control; format: functional; settings: MDA-MB-231, 48 h, read-out: Activity
# MDA-MB-231 [9] = assay: Antiproliferative activity against human MDA-MB-231 cells assessed as cell growth at 0.41852 uM after 48 hrs by alamar blue assay relative to control; format: functional; settings: MDA-MB-231, 48 h, read-out: Activity
# MDA-MB-231 [10] = assay: Antiproliferative activity against human MDA-MB-231 cells assessed as cell growth at 1.25556 uM after 48 hrs by alamar blue assay relative to control; format: functional; settings: MDA-MB-231, 48 h, read-out: Activity
# MDA-MB-231 [11] = assay: Antiproliferative activity against human MDA-MB-231 cells assessed as cell growth at 0.0155 uM after 48 hrs by alamar blue assay relative to control; format: functional; settings: MDA-MB-231, 48 h, read-out: Activity
# [12] = molecular target: T2, E3 ubiquitin-protein ligase XIAP; assay: Binding affinity to GST-tagged BIR3 domain of XIAP by isothermal titration calorimetry
# MDA-MB-231 [13] = assay: Antiproliferative activity against human MDA-MB-231 cells assessed as cell growth at 0.0465 uM after 48 hrs by alamar blue assay relative to control; format: functional; settings: MDA-MB-231, 48 h, read-out: Activity
# MDA-MB-231 [14] = assay: Antiproliferative activity against human MDA-MB-231 cells assessed as cell growth at 0.00517 uM after 48 hrs by alamar blue assay relative to control; format: functional; settings: MDA-MB-231, 48 h, read-out: Activity
# MDA-MB-231 [15] = assay: Antiproliferative activity against human MDA-MB-231 cells assessed as cell growth at 11.3 uM after 48 hrs by alamar blue assay relative to control; format: functional; settings: MDA-MB-231, 48 h, read-out: Activity
SMILES,EC50 [2] [nM],IC50 [4] [nM],other results
CN[C@@H](C)C(=O)N[C@H](C(=O)N[C@H]1CCCN(CCc2ccccc2)C1)C1CCCCC1,113,40,GI50 (MDA-MB-231 [1]): 1010 nM; IC50 [3]: > 8000 nM
CN[C@@H](C)C(=O)N[C@H](C(=O)N1CC[C@H]2CCN(CCc3ccccc3)C[C@H]21)C1CCCCC1,,,logD [5]: 2.61
CN[C@@H](C)C(=O)N[C@H](C(=O)N[C@H]1CCN(Cc2ccccc2)C1)C1CCCCC1,,3380,
CN[C@@H](C)C(=O)N[C@H](C(=O)N[C@H]1CCN(CCc2ccccc2)C1)C1CCCCC1,,500,
CN[C@@H](C)C(=O)N[C@H](C(=O)N[C@H]1CCN(CCCc2ccccc2)C1)C1CCCCC1,,740,
CN[C@@H](C)C(=O)N[C@H](C(=O)N[C@H]1CCN(C(=O)c2ccccc2)C1)C1CCCCC1,,5020,
CN[C@@H](C)C(=O)N[C@H](C(=O)N[C@H]1CCN(C(=O)Cc2ccccc2)C1)C1CCCCC1,,780,
CN[C@@H](C)C(=O)N[C@H](C(=O)N[C@H]1CCN(C(=O)OCc2ccccc2)C1)C1CCCCC1,,740,
CN[C@@H](C)C(=O)N[C@H](C(=O)N[C@H]1CCCN(Cc2ccccc2)C1)C1CCCCC1,,1690,
CN[C@@H](C)C(=O)N[C@H](C(=O)N[C@H]1CCCN(CCCc2ccccc2)C1)C1CCCCC1,,790,
CN[C@@H](C)C(=O)N[C@H](C(=O)N[C@H]1CCCN(C(=O)c2ccccc2)C1)C1CCCCC1,,3360,
CN[C@@H](C)C(=O)N[C@H](C(=O)N[C@H]1CCCN(C(=O)Cc2ccccc2)C1)C1CCCCC1,,130,
CN[C@@H](C)C(=O)N[C@H](C(=O)N[C@H]1CCCN(C(=O)OCc2ccccc2)C1)C1CCCCC1,,450,
CN[C@@H](C)C(=O)N[C@H](C(=O)N[C@H]1CCCCN(Cc2ccccc2)C1)C1CCCCC1,,270,
CN[C@@H](C)C(=O)N[C@H](C(=O)N[C@H]1CCCCN(CCc2ccccc2)C1)C1CCCCC1,,80,
CN[C@@H](C)C(=O)N[C@H](C(=O)N[C@H]1CCCN(CCc2ccccc2)C1)C(C)(C)C,,26,
CN[C@@H](C)C(=O)N[C@H](C(=O)N(C)[C@H]1CCCN(CCc2ccccc2)C1)C1CCCCC1,,44,
CN[C@@H](C)C(=O)N[C@H](C(=O)N[C@H]1CCCN(CC(c2ccccc2)c2ccccc2)C1)C1CCCCC1,,62,
CN[C@@H](C)C(=O)N[C@H](C(=O)N[C@H]1CCCN([C@@H]2CCCc3ccccc32)C1)C1CCCCC1,,1990,

SMILES,EC50 [2] [nM],IC50 [4] [nM],other results
CN[C@@H](C)C(=O)N[C@H](C(=O)N[C@H]1CCCN(S(=O)(=O)c2ccccc2)C1)C(C)(C)C,,5750,
CN[C@@H](C)C(=O)N[C@H](C(=O)N[C@H]1CCCN(S(=O)(=O)Cc2ccccc2)C1)C(C)(C)C,,3890,
CN[C@@H](C)C(=O)N[C@H](C(=O)N[C@H]1CCCN(CCc2ccccc2F)C1)C1CCCCC1,104,33,
CN[C@@H](C)C(=O)N[C@H](C(=O)N[C@H]1CCCN(CCc2cccc(F)c2)C1)C1CCCCC1,279,68,
CN[C@@H](C)C(=O)N[C@H](C(=O)N[C@H]1CCCN(CCc2ccc(F)cc2)C1)C1CCCCC1,58,18,
CN[C@@H](C)C(=O)N[C@H](C(=O)N[C@H]1CCCN(CCc2ccc(F)cc2)C1)C(C)(C)C,60,20,
CN[C@@H](C)C(=O)N[C@H](C(=O)N[C@H]1CCCN(CCc2ccccc2OC)C1)C(C)(C)C,156,50,
CN[C@@H](C)C(=O)N[C@H](C(=O)N[C@H]1CCCN(CCc2cccc(OC)c2)C1)C(C)(C)C,164,52,
CN[C@@H](C)C(=O)N[C@H](C(=O)N[C@H]1CCCN(CCc2ccc(OC)cc2)C1)C(C)(C)C,158,90,
CN[C@@H](C)C(=O)N[C@H](C(=O)N[C@H]1CCCN(CCc2ccc(Cl)cc2)C1)C(C)(C)C,117,24,
CN[C@@H](C)C(=O)N[C@H](C(=O)N[C@H]1CCCN(CCc2ccc(Br)cc2)C1)C(C)(C)C,71,24,
CN[C@@H](C)C(=O)N[C@H](C(=O)N[C@H]1CCCN(CCc2ccc(C)cc2)C1)C(C)(C)C,60,30,
CN[C@@H](C)C(=O)N[C@H](C(=O)N[C@H]1CCCN(CCc2ccc(O)cc2)C1)C(C)(C)C,68,42,
CN[C@@H](C)C(=O)N[C@H](C(=O)N[C@H]1CCCN(CCc2ccc([N+](=O)[O-])cc2)C1)C(C)(C)C,60,32,
CN[C@@H](C)C(=O)N[C@H](C(=O)N[C@H]1CCCN(CCc2ccc(C(F)(F)F)cc2)C1)C(C)(C)C,300,49,
CN[C@@H](C)C(=O)N[C@H](C(=O)N[C@H]1CCCN(CCc2ccccn2)C1)C(C)(C)C,> 370,301,
CN[C@@H](C)C(=O)N[C@H](C(=O)N[C@H]1CCCN(CCc2ccncc2)C1)C(C)(C)C,> 370,593,
CN[C@@H](C)C(=O)N[C@H](C(=O)N[C@H]1CCCN(CCc2c[nH]c3ccccc23)C1)C(C)(C)C,185,115,
CN[C@@H](C)C(=O)N[C@H](C(=O)N[C@H]1C[C@@H]2CC[C@H]1N(CCc1ccccc1)C2)C1CCCCC1,5,4,growth at 0.00172 µM (MDA-MB-231 [6]): 97%; logD [5]: 1.64; growth at 0.13951 µM (MDA-MB-231 [7]): 37.5%; growth at 3.76667 µM (MDA-MB-231 [8]): -11%; GI50 (MDA-MB-231 [1]): 100 nM; growth at 0.41852 µM (MDA-MB-231 [9]): 3.61%; growth at 1.25556 µM (MDA-MB-231 [10]): -12.2%; growth at 0.0155 µM (MDA-MB-231 [11]): 84%; Kd [12]: 900 nM; growth at 0.0465 µM (MDA-MB-231 [13]): 73.5%; growth at 0.00517 µM (MDA-MB-231 [14]): 82.2%; growth at 11.3 µM (MDA-MB-231 [15]): 8.61%; IC50 [3]: 365 nM
